Reference: US20240228489A1, “POSITIVE ALLOSTERIC MODULATORS OF THE MUSCARINIC ACETYLCHOLINE RECEPTOR M1” (Vanderbilt University, priority 2021, published 2024)

Key:
human mAChR M1 [1] = molecular target: T1, human mAChR M1 (Homo sapiens, UniProt P11229); assay: mAChR M1 cell-based functional assay (calcium mobilization), PAM mode: increase in the EC20 acetylcholine response
T1 sequence (P11229 1-460): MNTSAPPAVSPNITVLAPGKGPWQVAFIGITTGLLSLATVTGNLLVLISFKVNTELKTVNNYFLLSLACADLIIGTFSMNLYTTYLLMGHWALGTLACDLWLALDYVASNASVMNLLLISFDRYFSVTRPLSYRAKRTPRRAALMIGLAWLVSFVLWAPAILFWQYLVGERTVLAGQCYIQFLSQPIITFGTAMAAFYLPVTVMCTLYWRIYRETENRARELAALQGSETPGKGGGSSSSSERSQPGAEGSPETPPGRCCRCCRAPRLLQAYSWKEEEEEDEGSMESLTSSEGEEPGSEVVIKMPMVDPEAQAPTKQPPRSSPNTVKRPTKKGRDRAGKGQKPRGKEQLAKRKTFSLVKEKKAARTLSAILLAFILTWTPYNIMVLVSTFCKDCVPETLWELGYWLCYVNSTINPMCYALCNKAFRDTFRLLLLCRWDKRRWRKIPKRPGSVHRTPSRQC
Excerpt: (§1) Chinese hamster ovary (CHO-K1) cells stably expressing rat (r)M1 were purchased from the American Type Culture Collection and cultured according to their indicated protocol. CHO cells stably expressing human (h)M2, hM3, and hM5 were described previously (Levey, et al., 1991); hM1 and hM4 cDNAs were purchased from Missouri S&T cDNA Resource; rM4 cDNA was provided by T. I. Bonner (National Institutes of Health, Bethesda, MD). rM2 and rM3 were cloned from a rat brain cDNA library and sequence verified. hM1, rM2, rM3, hM4, and rM4 cDNAs were used to stably transfect CHO-K1 cells purchased from the American Type Culture Collection using Lipofectamine2000. To make stable rM2, hM2, rM3, hM4, and rM4 cell lines for use in calcium mobilization assays, these cells also were stably transfected with a chimeric G-protein (Gqi5) (provided by B. R. Conklin, University of California, San Francisco) using Lipofectamine 2000. rM1, hM1, rM3, hM3, rM5, and hM5 cells were grown in Ham's F-12 medium containing 10% heat-inactivated fetal bovine serum (FBS), 20 mM HEPES, and 50 μg/mL G418 sulfate. rM2-Gqi5, hM2-Gqi5, and hM4-Gqi5 cells were grown in the same medium also containing 500 μg/mL Hygromycin B. Stable rM4-Gqi5 cells were grown in DMEM containing 10% heat-inactivated FBS, 20 mM HEPES, 400 μg/mL G418 sulfate, and 500 μg/mL Hygromycin B.
(§2) For high throughput measurement of agonist-evoked increases in intracellular calcium, CHO-K1 cells stably expressing muscarinic receptors were plated in growth medium lacking G418 and hygromycin at 15,000 cells/20 μL/well in Greiner 384-well black-walled, tissue culture (TC)-treated, clear-bottom plates (VWR). Cells were incubated overnight at 37° C. and 5% C02. The next day, cells were washed using an ELX 405 (BioTek) with four washes (80 μL) of assay buffer then aspirated to 20 μL. Next, 20 μL of 16 μM Fluo-4/acetoxymethyl ester (Invitrogen, Carlsbad, CA) prepared as a 2.3 mM stock in DMSO and mixed in a 1:1 ratio with 10% (w/v) Pluronic F-127 and diluted in assay buffer was added to the wells and the cell plates were incubated for 50 min at 37° C. and 5% C02. Dye was removed by washing with the ELX 405 (four 80 μL washes of assay buffer) then aspirated to 20 μL. Compound master plates were formatted in an 11 point CRC format (1:3 dilutions) in 100% DMSO with a starting concentration of 10 mM using the BRAVO liquid handler (Agilent). Test compound CRCs were then transferred to daughter plates (240 nL) using the Echo acoustic plate reformatter (Labcyte, Sunnyvale, CA) and then diluted into assay buffer (40 μL) to a 2× stock using a Thermo Fisher Combi (Thermo Fisher Scientific, Waltham, MA).
Calcium flux was measured using the Functional Drug Screening System (FDSS) 6000 (Hamamatsu Corporation, Tokyo, Japan) as an increase in the fluorescent static ratio. Compounds were applied to cells (20 μL, 2×) using the automated system of the FDSS 6000 at 4 s into the 300 s protocol and the data were collected at 1 Hz. At 144 s into the 300 s protocol, 10 μL of an EC20 concentration of the muscarinic receptor agonist acetylcholine was added (5×), followed by the addition of 12 μL of an EC80 concentration of acetylcholine at the 230 s time point (5×). Agonist activity was analyzed as a concentration-dependent increase in calcium mobilization upon compound addition. Emax values for agonist activity are expressed relative to the maximum for acetylcholine. Positive allosteric modulator activity was analyzed as a concentration-dependent increase in the EC20 acetylcholine response. Antagonist activity was analyzed as a concentration-dependent decrease in the EC80 acetylcholine response. Concentration-response curves were generated using a four-parameter logistical equation in XLfit curve fitting software (IDBS, Bridgewater, NJ) for Excel (Microsoft, Redmond, WA) or Prism (GraphPad Software, Inc., San Diego, CA). […]

human mAChR M1 [2] = molecular target: T1, human mAChR M1; assay: mAChR M1 cell-based functional assay (calcium mobilization), agonist mode: compound alone, Emax relative to acetylcholine maximum; conditions: for EC50 / Agonist Activity Human M1 EC50: human mAChR M1; for Emax: relative to the maximum for acetylcholine
Excerpt: as §1, §2
Calcium flux was measured using the Functional Drug Screening System (FDSS) 6000 (Hamamatsu Corporation, Tokyo, Japan) as an increase in the fluorescent static ratio. Compounds were applied to cells (20 μL, 2×) using the automated system of the FDSS 6000 at 4 s into the 300 s protocol and the data were collected at 1 Hz. At 144 s into the 300 s protocol, 10 μL of an EC20 concentration of the muscarinic receptor agonist acetylcholine was added (5×), followed by the addition of 12 μL of an EC80 concentration of acetylcholine at the 230 s time point (5×). Agonist activity was analyzed as a concentration-dependent increase in calcium mobilization upon compound addition. Emax values for agonist activity are expressed relative to the maximum for acetylcholine. Positive allosteric modulator activity was analyzed as a concentration-dependent increase in the EC20 acetylcholine response. Antagonist activity was analyzed as a concentration-dependent decrease in the EC80 acetylcholine response. Concentration-response curves were generated using a four-parameter logistical equation in XLfit curve fitting software (IDBS, Bridgewater, NJ) for Excel (Microsoft, Redmond, WA) or Prism (GraphPad Software, Inc., San Diego, CA).

Structure (SMILES)	EC50 (human mAChR M1 [1])	Emax (human mAChR M1 [1])	EC50 (human mAChR M1 [2])	Emax (human mAChR M1 [2])	Agonist Activity Human M1 EC50 (human mAChR M1 [2])
[2H]C1([2H])c2ncccc2C(=O)N1Cc1c(C)cc(-c2cccc3nn(C)cc23)cc1F (single isomer, unassigned) [Compound 155, 6-(2-Fluoro-6-methyl-4-(2-methyl-2H-indazol-4-yl)benzyl)-6,7-dihydro-5H-pyrrolo[3,4-b]pyridin-5-one-7,7-d2]	2480 nM	82%	8250 nM	34%	
[2H]C1([2H])c2ncccc2C(=O)N1Cc1c(C)cc(-c2cccc3nn(C([2H])([2H])[2H])cc23)cc1F (single isomer, unassigned) [Compound 156, 6-(2-Fluoro-6-methyl-4-(2-(methyl-d3)-2H-indazol-4-yl)benzyl)-6,7-dihydro-5H-pyrrolo[3,4-b]pyridin-5-one-7,7-d2]	194 nM	85%	8160 nM	33%	
[2H]C1([2H])c2ncccc2C(=O)N1Cc1c(F)cc(-c2cccc3nn(C)cc23)cc1F [Compound 1, 6-(2,6-difluoro-4-(2-methyl-2H-indazol-4-yl)benzyl)-6,7-dihydro-5H-pyrrolo[3,4-b]pyridin-5-one-7,7-d2]	538 nM	84%		8%	Inactive
[2H]C1([2H])c2ncccc2C(=O)N1Cc1c(F)cc(-c2ccnc3nn(C)cc23)cc1F [Compound 2, 6-(2,6-difluoro-4-(2-methyl-2H-pyrazolo[3,4-b]pyridin-4-yl)benzyl)-6,7-dihydro-5H-pyrrolo[3,4-b]pyridin-5-one-7,7-d2]	980 nM	57%	7700 nM	34%	
[2H]C1([2H])c2ncccc2C(=O)N1Cc1c(F)cc(-c2cnc3nn(C)cc3c2)cc1F [Compound 3, 6-(2,6-difluoro-4-(2-methyl-2H-pyrazolo[3,4-b]pyridin-5-yl)benzyl)-6,7-dihydro-5H-pyrrolo[3,4-b]pyridin-5-one-7,7-d2]	900 nM	56%	6920 nM	31%	
[2H]C1([2H])c2ncccc2C(=O)N1Cc1c(F)cc(-c2cc3cn(C)nc3cc2F)cc1F [Compound 4, 6-(2,6-difluoro-4-(6-fluoro-2-methyl-2H-indazol-5-yl)benzyl)-6,7-dihydro-5H-pyrrolo[3,4-b]pyridin-5-one-7,7-d2]	1060 nM	48%		2%	Inactive
[2H]C1([2H])c2ncccc2C(=O)N1Cc1c(F)cc(-c2ccn3ccnc3c2)cc1F [Compound 5, 6-(2,6-difluoro-4-(imidazo[1,2-a]pyridin-7-yl)benzyl)-6,7-dihydro-5H-pyrrolo[3,4-b]pyridin-5-one-7,7-d2]	977 nM	40%		2%	Inactive
[2H]C1([2H])c2ncccc2C(=O)N1Cc1c(F)cc(-c2cc3cn(C)nc3cc2C)cc1F [Compound 6, 6-(4-(2,6-dimethyl-2H-indazol-5-yl)-2,6-difluorobenzyl)-6,7-dihydro-5H-pyrrolo[3,4-b]pyridin-5-one-7,7-d2]	4090 nM	48%		7%	Inactive
[2H]C1([2H])c2ncccc2C(=O)N1Cc1c(F)cc(-c2cc(F)c3nn(C)cc3c2)cc1F [Compound 7, 6-(2,6-difluoro-4-(7-fluoro-2-methyl-2H-indazol-5-yl)benzyl)-6,7-dihydro-5H-pyrrolo[3,4-b]pyridin-5-one-7,7-d2]	952 nM	53%		4%	Inactive
[2H]C1([2H])c2ncccc2C(=O)N1Cc1c(F)cc(-c2ccc3nn(C)cc3c2)cc1F [Compound 8, 6-(2,6-difluoro-4-(2-methyl-2H-indazol-5-yl)benzyl)-6,7-dihydro-5H-pyrrolo[3,4-b]pyridin-5-one-7,7-d^2]	639 nM	62%		4%	Inactive
[2H]C1([2H])c2ncccc2C(=O)N1Cc1ccc(-c2ccc3nn(C)cc3c2)cc1F [Compound 9, 6-(2-fluoro-4-(2-methyl-2H-indazol-5-yl)benzyl)-6,7-dihydro-5H-pyrrolo[3,4-b]pyridin-5-one-7,7-d2]	686 nM	71%		6%	Inactive
[2H]C1([2H])c2ncccc2C(=O)N1Cc1ccc(-c2ccc3c(cnn3C)c2)cc1F [Compound 10, 6-(2-fluoro-4-(1-methyl-1H-indazol-5-yl)benzyl)-6,7-dihydro-5H-pyrrolo[3,4-b]pyridin-5-one-7,7-d2]	1460 nM	62%		4%	Inactive
[2H]C1([2H])c2ncccc2C(=O)N1Cc1ccc(-c2cccc3nn(C)cc23)cc1 [Compound 11, 6-(4-(2-methyl-2H-indazol-4-yl)benzyl)-6,7-dihydro-5H-pyrrolo[3,4-b]pyridin-5-one-7,7-d2]	1300 nM	77%		6%	Inactive
[2H]C1([2H])c2ncccc2C(=O)N1Cc1ccc(-c2ccc3nn(C)cc3c2)cc1 [Compound 12, 6-(4-(2-methyl-2H-indazol-5-yl)benzyl)-6,7-dihydro-5H-pyrrolo[3,4-b]pyridin-5-one-7,7-d2]	1230 nM	62%		2%	Inactive
[2H]C1([2H])c2ncccc2C(=O)N1Cc1ccc(-c2cnc3nn(C)cc3c2)cc1 [Compound 13, 6-(4-(2-methyl-2H-pyrazolo[3,4-b]pyridin-5-yl)benzyl)-6,7-dihydro-5H-pyrrolo[3,4-b]pyridin-5-one-7,7-d2]	5190 nM	75%		3%	Inactive
